The test system of test [1] is thymidine kinase extracted from human cells. The experiment in a line: Binding affinity with thymidine kinase extracted from human cells (Example 6). The method, then: (§1) The methylmercapto composition, as described in Example 5. was tested for binding affinity with thymidine kinase from various sources. Viruses which induce the production of thymidine kinase, induce thymidine kinase specific to the virus. […] It is believed that the compound of the invention, in order to become active in inhibiting the replication of the virus, must become phosphorylated. For such phosphorylation to occur, the thymidine kinase must first bind to the compound. Since binding with thymidine kinase produced by the virus is much more efficient and effective than binding with thymidine kinase from other sources, phosphorylation of the compound occurs more rapidly in the presence of active viruses producing thymidine kinase. The compound, activated by phosphorylation, then is able to interfere with replication of the virus.

Test [2] has as its target thymidine kinase extracted from Varicella zoster virus infected cells (Human herpesvirus 3 strain Dumas, UniProt P09250). In words: Binding affinity with thymidine kinase from Varicella zoster virus infected cells (Example 6). As to the method:
as §1

The subject of another test is HSV-2 (333). The experiment in a line: Virus titer in HSV-2 infected HeLa cells, 24 hours post infection (Example 5). The class given is cell-based, herpes simplex type 2. To be noted: control 1.2 × 10^7. The method, then:
(§2) In accordance with the present invention, 1-(2-Deoxy-β-D-ribofuranosyl)-5-(methylmercapto)-2-pyrimidinone is prepared essentially in accordance with the procedure set forth in "Snythesis and Antiviral Activity of 1-(2-Deoxy-β-D-ribofuranosyl)-5-(methylmercapto)-2-pyrimidinone" by Schroeder and Bardos and Cheng, Volume 24, page 109, January 1981. HeLa cells were infected in 1640 RPMI medium with herpes simplex type 1 (HSV-1) and independently with herpes simplex type 2 (HSV-2) virus at a multiplicity of 5 to 10 plaque forming units per cell. The composition of 1640 RPMI medium is reported in "Biological Activity of 5 Ethyl, 5 Propyl, and 5 Vinyl 2'-Deoxyuridine" by Cheng et al published in Antimicrobial Agents and Chemotherapy, Volume 10, beginning at page 119 (1976). 1640 RPMI medium is commercially available from Gibco Company, Grand Island, N.Y. After 1 hour, virus absorption, the drugs were added. Resulting cultures were analyzed for virus titer at 24 hours post infection a described in the procedure set forth in "Biological Activity of 5-Ethyl, 5-Propyl and 5-Vinyl 2'-uridine" by Cheng et al. The results are set forth in Table 2. The numbers set forth in Table 2 show the number of plaque forming units in the control which contained no methylmercapto compound and the number of units at concentrations of 100, 200 and 400 micromoles of the methylmercapto compound. The results clearly indicate substantial decrease in the number of plaque forming units in the presence of 1-(2-Deoxy-β-D-ribofuranosyl)-5-(methylmercapto)-2-pyrimidinone.

The test system of a further test is HSV-2. In words: Viral inhibition, HSV-2 (Example 7, method of Example 5). The class given is cell-based, herpes simplex type 2. To be noted: Human alphaherpesvirus 2. The method, then:
as §2
(§3) The above described methyl compound was tested for viral inhibition substantially in accordance with the method of Example 5 except that the concentrations were 50 and 100 micromolar.

In the next test the test system is HSV-1(Kos). In words: Virus titer in HSV-1 infected HeLa cells, 24 hours post infection (Example 5). To be noted: control 1.5 × 10^7. In kind it is cell-based, herpes simplex type 1. As to the method: as §2
The subject of a further test is HSV-1. The experiment in a line: Viral inhibition, HSV-1 (Example 7, method of Example 5). In kind it is cell-based, herpes simplex type 1. To be noted: Human alphaherpesvirus 1. As to the method: as §2, §3
Test [3] has as its target thymidine kinase extracted from cells infected with herpes simplex 1 virus (Human alphaherpesvirus 1 strain 17, UniProt P0DTH5). The experiment in a line: Binding affinity with thymidine kinase extracted from cells infected with herpes simplex 1 virus (Example 6). The conditions noted are these: herpes simplex 1 virus infected cells. As to the method:
as §1

[4] abbreviates: 50 micromolar, vs untreated control.

Sequence of thymidine kinase extracted from Varicella zoster virus infected cells (P09250 whole entry, looked up): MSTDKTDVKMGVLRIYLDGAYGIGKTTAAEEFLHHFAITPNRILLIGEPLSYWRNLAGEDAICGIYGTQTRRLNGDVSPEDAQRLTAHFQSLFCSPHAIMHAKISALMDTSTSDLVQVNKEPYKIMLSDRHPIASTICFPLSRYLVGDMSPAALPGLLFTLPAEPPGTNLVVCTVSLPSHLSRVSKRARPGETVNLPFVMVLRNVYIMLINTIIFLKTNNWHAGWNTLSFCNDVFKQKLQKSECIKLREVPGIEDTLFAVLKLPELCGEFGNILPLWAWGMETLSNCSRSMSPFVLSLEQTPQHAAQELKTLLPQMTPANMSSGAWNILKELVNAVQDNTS
Sequence of thymidine kinase extracted from cells infected with herpes simplex 1 virus (P0DTH5 whole entry): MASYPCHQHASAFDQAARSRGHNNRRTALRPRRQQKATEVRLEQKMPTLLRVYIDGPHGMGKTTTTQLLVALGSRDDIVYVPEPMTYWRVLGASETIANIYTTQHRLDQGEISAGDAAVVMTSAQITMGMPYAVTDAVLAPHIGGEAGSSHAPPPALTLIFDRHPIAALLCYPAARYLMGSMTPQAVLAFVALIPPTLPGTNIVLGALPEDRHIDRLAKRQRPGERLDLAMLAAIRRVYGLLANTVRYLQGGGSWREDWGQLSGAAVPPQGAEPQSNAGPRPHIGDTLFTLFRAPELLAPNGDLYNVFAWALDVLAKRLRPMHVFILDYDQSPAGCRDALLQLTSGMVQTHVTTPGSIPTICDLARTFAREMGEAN

Regarding `CSc1cnc(=O)n([C@H]2C[C@H](O)[C@@H](CO)O2)c1` [methylmercapto compound, 1-(2-Deoxy-β-D-ribofuranosyl)-5-(methylmercapto)-2-pyrimidinone], the “binding affinity with thymidine kinase” value is on record as “little binding affinity” in test [1], “great binding affinity” in test [2] and “great binding affinity” in test [3]. For the same compound, the “plaque-forming units/mL, HSV-2 (333)” value with HSV-2 (333) (100 μM) is given as 1.3 × 10^7 plaque-forming units/mL; in the test on HSV-2 (333) (200 μM), 3.1 × 10^6 plaque-forming units/mL; with HSV-2 (333) (400 μM), 3.2 × 10^5 plaque-forming units/mL. The inhibition at 50 µM in the test on HSV-2 (setting [4]) worked out at 57.2%; in the test with HSV-1 (setting [4]) it was 41.1%. The inhibition at 100 µM with HSV-2 (100 micromolar) came out at 79.3%; in the test on HSV-1 (100 micromolar) it was 83.8%. In addition, the figures for the “plaque-forming units/mL, HSV-1(Kos)” value in the test with HSV-1(Kos) (100 μM), in the test on HSV-1(Kos) (200 μM) and in the test with HSV-1(Kos) (400 μM) were 6.4 × 10^7 plaque-forming units/mL, 1.7 × 10^6 plaque-forming units/mL and 3.4 × 10^5 plaque-forming units/mL, respectively.

The record behind these values is patent US4895937A, “5-ioso-2-pyrimidinone nucleoside” (The Research Foundation of State University of New York, priority 1988, dated 1990).
